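96-well plates; 48 h exposure; 5 concentrations. Endpoints by linear interpolation between flanking doses. Not reached: highest tested concentration assigned. GI50 marks 50% less growth.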 Activity calls are given as the source filed them. Cut-off read from the data, not from the text of the source: active = GI50 up to about 1.1 µM and inactive = higher.
Key:
Test in all cases: inhibition of tumour cell growth, NCI panel, 48 h
[1] = system: SF-539
[2] = system: SK-MEL-28
[3] = system: CCRF-CEM
[4] = system: TK-10
[5] = system: HCT-15
[6] = system: M14
[7] = system: NCI-H23
[8] = system: KM12
[9] = system: SF-268
[10] = system: PC-3
[11] = system: SR
[12] = system: NCI-H226
[13] = system: RPMI-8226
[14] = system: SNB-75
[15] = system: IGROV-1
[16] = system: BT-549
[17] = system: HCT-116
[18] = system: 786-0
[19] = system: T47D
[20] = system: SK-MEL-5

Measured: GI50

CC(C)=CCC[C@]1(C)C=Cc2c(O)c3c(c(CC=C(C)C)c2O1)O[C@]12C(=C[C@@H]4CC1C(C)(C)O[C@@]2(C/C=C(/C)C(=O)O)C4=O)C3=O
0.813 µM: [5]
active: [1] 0.206 µM | [3] 0.273 µM | [4] 0.861 µM | [7] 0.938 µM | [8] 1.02 µM | [10] 0.802 µM | [11] 0.317 µM | [12] 0.774 µM | [13] 0.368 µM | [17] 0.256 µM | [18] 0.488 µM
inactive: [2] 1.28 µM | [6] 1.57 µM | [9] 1.45 µM | [14] 1.63 µM | [15] 1.43 µM | [16] 1.91 µM

Cc1[nH]c(/C=C2\C(=O)Nc3ccccc32)c(C)c1CCC(=O)O [ORANTINIB]
31.4 µM: [5]
inactive: [19] 34.1 µM | [2] 31.1 µM | [3] 34.7 µM | [4] 42.5 µM | [6] 23.1 µM | [7] 27.7 µM | [8] 4.37 µM | [9] 34.4 µM | [20] 26.5 µM | [10] 35.7 µM | [11] 23.9 µM | [13] 22.8 µM | [14] 12.6 µM | [15] 21.9 µM | [16] 34.1 µM | [17] 31.1 µM | [18] 51.4 µM

Cc1ccc(C2(c3ccc(F)cc3)OC(=O)c3ccccc32)c(O)c1 (centres undefined)
inactive: [19] 13.5 µM | [1] 18.9 µM | [3] 18.7 µM | [4] 15.1 µM | [6] 15 µM | [7] 19.9 µM | [8] 15.5 µM | [9] 19.5 µM | [20] 16.3 µM | [12] 15 µM | [13] 16.4 µM | [14] 12.3 µM | [15] 14.4 µM | [16] 19.7 µM | [17] 12.9 µM | [18] 15.4 µM
15.2 µM: [5]

CC(=O)Nc1ccc(C(O)/C(=N/N)c2nc3ccc(Cl)cc3nc2O)cc1 (centres undefined)
inactive: [19] > 100 µM | [1] > 100 µM | [2] > 100 µM | [3] > 100 µM | [4] > 100 µM | [6] > 100 µM | [7] > 100 µM | [8] > 100 µM | [9] > 100 µM | [20] > 100 µM | [10] > 100 µM | [11] > 100 µM | [12] > 100 µM | [14] > 100 µM | [15] > 100 µM | [16] > 100 µM | [17] > 100 µM | [18] > 100 µM
> 100 µM: [5]

CSC(=S)NN=C1CCCC1.CSC(=S)NN=C1CCCC1.[Zn+2]
active: [3] < 0.01 µM
1.99 µM: [5]
inactive: [19] 33.5 µM | [1] 21.3 µM | [2] 72.4 µM | [4] 19.8 µM | [6] 40.1 µM | [7] > 100 µM | [8] 41 µM | [9] 34.1 µM | [20] 57.1 µM | [10] 25.8 µM | [12] 43.9 µM | [13] 11.5 µM | [14] > 100 µM | [15] 10.1 µM | [16] 24 µM | [17] 14.7 µM | [18] 33.5 µM

CC(=O)NC1(C)CCC(C(C)(C)NC(C)=O)CC1 (centres undefined)
inactive: [1] > 100 µM | [2] > 100 µM | [3] > 100 µM | [4] > 100 µM | [6] > 100 µM | [7] > 100 µM | [8] > 100 µM | [9] > 100 µM | [20] > 100 µM | [10] > 100 µM | [11] > 100 µM | [12] > 100 µM | [13] > 100 µM | [14] > 100 µM | [15] > 100 µM | [16] > 100 µM | [17] > 100 µM | [18] > 100 µM
> 100 µM: [5]

COc1cc(OC2OC(COC(=O)c3cc(O)c(O)c(O)c3)C(O)C(O)C2O)ccc1O (centres undefined)
inactive: [1] > 100 µM | [2] > 100 µM | [3] 42.2 µM | [4] 76.7 µM | [6] 90.8 µM | [7] > 100 µM | [8] 88.1 µM | [9] 82 µM | [20] > 100 µM | [10] 26.2 µM | [11] > 100 µM | [12] > 100 µM | [13] > 100 µM | [14] > 100 µM | [15] > 100 µM | [16] 47.3 µM | [17] > 100 µM | [18] > 100 µM
> 100 µM: [5]
